Results reported in US9200005B2, “Inhibitor compounds of phosphodiesterase type 10A” (AbbVie Deutschland GmbH & Co. KG, priority 2013, dated 2015).

Key:
[1] = Determination of the microsomal half-life / microsomal clearance, human liver microsomes; assay type: in vitro ADME; conditions: 0.5 μM test substance, 0.25 mg of microsomal protein/mL, NADPH, 37° C.
Procedure, shortened: (§1)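 Compound (0.5 μM) was preincubated 5 min at 37 °C with rat or human liver microsomes (0.25 mg protein/mL) in 0.05 M phosphate pH 7.4, and NADPH (1 mg/mL) was then added. Samples taken at 0-30 min and quenched with acetonitrile were analysed by MS/MS. T½ was derived assuming first-order decay, and clearance […] was calculated from T½ and protein content.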

[2] = molecular target: PDE10A (UniProt Q9Y233); experiment: Measurement of PDE activity (HTRF cAMP kit, recombinant PDE10A); assay type: biochemical, human, rat and mouse; conditions: substrate 20 nM, 60 minutes at 29° C.
Protocol: a) Measurement of PDE Activity
The recombinant PDE proteins are used in in vitro enzymatic reaction for measurement of PDE activity. These recombinant proteins, including PDE10A (human, rat and mouse PDE10) and isoforms of PDEs 1, 3, 4, and 5, were purchased from commercial vendor BPS Bioscience. The enzymatic activity of PDEs was determined by cAMP measurement kit from CisBio (IBA) using HTRF technology.
The PDE enzymatic reaction was carried out in assay buffer (20 mM Tris-HCl pH 7.5, 10 mM MgCl2, 0.1% bovine serum albumin) containing enzyme and substrate. […] The substrate cyclic nucleotide (cAMP or cGMP) concentration used in the assay was 20 nM for PDE10, and 100 nM for other PDEs. The inhibitory effect of compound was determined by incubating various concentration of inhibitor in the enzymatic assay. […] Next, the compound at varying concentration was mixed with PDE enzyme. The reaction was initiated by addition of cyclic nucleotide substrate, and incubated for 60 minutes at 29° C. The reaction was stopped by addition of lysis buffer from the assay kit. The cAMP-d2 and anti-cAMP cryptate in the lysis buffer detected the level of cAMP left from the PDE hydrolysis reaction. […] Thus, IC50 value of inhibitor can be obtained by plotting inhibitor concentration against PDE activity at that concentration.

[3] = Determination of the microsomal half-life / microsomal clearance, rat liver microsomes; assay type: in vitro ADME; conditions: 0.5 μM test substance, 0.25 mg of microsomal protein/mL, NADPH, 37° C.
Procedure, shortened: as §1

[4] = system: rats; conditions: PCP (WO 03/093499); cited from earlier work
[5] = system: rats; conditions: amphetamine (WO 03/093499); cited from earlier work
[6] = system: rats; conditions: cited from earlier work

SMILES | Human mCl [1] | IC50 [2] [nM] | Rat mCl [3] | hyperactivity in rats induced by PCP [4] | reduction of amphetamine-induced hyperactivity [5] | catalepsy on its own ([6]; alone (WO 03/093499)) | cataleptic effect of the D2 receptor antagonist haloperidol ([6]; with haloperidol (WO 03/093499))
COc1ccccc1Oc1nn(C)c(=O)c2c(-c3ccncc3)csc12.O=C(O)C(F)(F)F [Example 84, 7-(2-methoxyphenoxy)-5-methyl-3-(pyridin-4-yl)thieno[2,3-d]pyridazin-4(5H)-one trifluoroacetate] | ++ (++: <100 μl min^−1 mg^−1) | 100 to 200 | ∘ (∘ not avialable or >220 μl min^−1 mg^−1) |  |  |  | 
COc1cccc(Oc2nn(C)c(=O)c3c(-c4ccncc4)csc23)c1 [Example 85, 7-(3-methoxyphenoxy)-5-methyl-3-(pyridin-4-yl)thieno[2,3-d]pyridazin-4(5H)-one] | ++ (++: <100 μl min^−1 mg^−1) | 100 to 200 | ++ (++: <100 μl min^−1 mg^−1) |  |  |  | 
COc1ccc(Oc2nn(C)c(=O)c3c(-c4ccncc4)csc23)cc1 [Example 86, 7-(4-methoxyphenoxy)-5-methyl-3-(pyridin-4-yl)thieno[2,3-d]pyridazin-4(5H)-one] | ++ (++: <100 μl min^−1 mg^−1) | 200 to 500 | + (+: 100-220 μl min^−1 mg^−1) |  |  |  | 
COc1cncc(Oc2nn(C)c(=O)c3c(-c4ccncc4)csc23)c1.O=C(O)C(F)(F)F.O=C(O)C(F)(F)F [Example 88, 7-[(5-methoxypyridin-3-yl)oxy]-5-methyl-3-(pyridin-4-yl)thieno[2,3-d]pyridazin-4(5H)-one bis(trifluoroacetate)] | ++ (++: <100 μl min^−1 mg^−1) | < 100 | ++ (++: <100 μl min^−1 mg^−1) |  |  |  | 
Cn1nc(Oc2ccc3c(c2)OCO3)c2scc(-c3ccncc3)c2c1=O [Example 89, 7-(1,3-benzodioxol-5-yloxy)-5-methyl-3-(pyridin-4-yl)thieno[2,3-d]pyridazin-4(5H)-one] | ++ (++: <100 μl min^−1 mg^−1) | 200 to 500 | + (+: 100-220 μl min^−1 mg^−1) |  |  |  | 
COc1ccc(Oc2nn(C)c(=O)c3c(-c4ccncc4)csc23)cc1OC [Example 91, 7-(3,4-dimethoxyphenoxy)-5-methyl-3-(pyridin-4-yl)thieno[2,3-d]pyridazin-4(5H)-one] | ++ (++: <100 μl min^−1 mg^−1) | < 100 | ++ (++: <100 μl min^−1 mg^−1) |  |  |  | 
COc1cc(OC)cc(Oc2nn(C)c(=O)c3c(-c4ccncc4)csc23)c1 [Example 92, 7-(3,5-dimethoxyphenoxy)-5-methyl-3-(pyridin-4-yl)thieno[2,3-d]pyridazin-4(5H)-one] | + (+: 100-220 μl min^−1 mg^−1) | < 100 | ++ (++: <100 μl min^−1 mg^−1) |  |  |  | 
Cn1nc(-c2cccc(C#N)c2)c2scc(-c3ccncc3)c2c1=O [Example 94, 3-[5-methyl-4-oxo-3-(pyridin-4-yl)-4,5-dihydrothieno[2,3-d]pyridazin-7-yl]benzonitrile] | ++ (++: <100 μl min^−1 mg^−1) | 100 to 200 | ++ (++: <100 μl min^−1 mg^−1) |  |  |  | 
Cn1nc(-c2ccc(C#N)cc2)c2scc(-c3ccncc3)c2c1=O [Example 95, 4-[5-methyl-4-oxo-3-(pyridin-4-yl)-4,5-dihydrothieno[2,3-d]pyridazin-7-yl]benzonitrile] | ++ (++: <100 μl min^−1 mg^−1) | < 100 | ++ (++: <100 μl min^−1 mg^−1) |  |  |  | 
COc1ccc(-c2nn(C)c(=O)c3c(-c4ccncc4)csc23)cc1 [Example 96, 7-(4-methoxyphenyl)-5-methyl-3-(pyridin-4-yl)thieno[2,3-d]pyridazin-4(5H)-one] | + (+: 100-220 μl min^−1 mg^−1) | < 100 | ++ (++: <100 μl min^−1 mg^−1) |  |  |  | 
Cn1nc(-c2ccc3ncoc3c2)c2scc(-c3ccncc3)c2c1=O [Example 97, 7-(1,3-benzoxazol-6-yl)-5-methyl-3-(pyridin-4-yl)thieno[2,3-d]pyridazin-4(5H)-one] | ++ (++: <100 μl min^−1 mg^−1) | < 100 | ++ (++: <100 μl min^−1 mg^−1) |  |  |  | 
COCCn1cc(-c2nn(C)c(=O)c3c(-c4ccncc4)csc23)cn1.O=C(O)C(F)(F)F.O=C(O)C(F)(F)F [Example 99, 7-[1-(2-methoxyethyl)-1H-pyrazol-4-yl]-5-methyl-3-(pyridin-4-yl)thieno[2,3-d]pyridazin-4(5H)-one bis(trifluoroacetate)] | ++ (++: <100 μl min^−1 mg^−1) | < 100 | ++ (++: <100 μl min^−1 mg^−1) |  |  |  | 
COc1cccc(-c2nn(C)c(=O)c3c(-c4ccncc4)csc23)c1 [Example 123, 7-(3-methoxyphenyl)-5-methyl-3-(pyridin-4-yl)thieno[2,3-d]pyridazin-4(5H)-one] | + (+: 100-220 μl min^−1 mg^−1) | 100 to 200 | ∘ (∘ not avialable or >220 μl min^−1 mg^−1) |  |  |  | 
Cn1nc(-c2ccc3c(c2)OCO3)c2scc(-c3ccncc3)c2c1=O [Example 124, 7-(1,3-benzodioxol-5-yl)-5-methyl-3-(pyridin-4-yl)thieno[2,3-d]pyridazin-4(5H)-one] | + (+: 100-220 μl min^−1 mg^−1) | 200 to 500 | + (+: 100-220 μl min^−1 mg^−1) |  |  |  | 
Cc1ncc(-c2csc3c(-c4ccncc4)nn(CC(F)(F)F)c(=O)c23)cn1 [Example 128, 3-(2-methylpyrimidin-5-yl)-7-(pyridin-4-yl)-5-(2,2,2-trifluoroethyl)thieno[2,3-d]pyridazin-4(5H)-one] | ++ (++: <100 μl min^−1 mg^−1) | 200 to 500 | ++ (++: <100 μl min^−1 mg^−1) |  |  |  | 
Cn1nc(-c2ccncc2)c2scc(-c3ccncc3)c2c1=O [Example 130, 5-methyl-3,7-di(pyridin-4-yl)thieno[2,3-d]pyridazin-4(5H)-one] | ++ (++: <100 μl min^−1 mg^−1) | 100 to 200 | ++ (++: <100 μl min^−1 mg^−1) |  |  |  | 
O=c1c2c(-c3ccncc3)csc2c(-c2ccncc2)nn1CC(F)(F)F [Example 131, 3,7-di(pyridin-4-yl)-5-(2,2,2-trifluoroethyl)thieno[2,3-d]pyridazin-4(5H)-one] | ++ (++: <100 μl min^−1 mg^−1) | < 100 | ++ (++: <100 μl min^−1 mg^−1) |  |  |  | 
CC(C)n1nc(-c2ccncc2)c2scc(-c3ccncc3)c2c1=O [Example 135, 5-(propan-2-yl)-3,7-di(pyridin-4-yl)thieno[2,3-d]pyridazin-4(5H)-one] | ++ (++: <100 μl min^−1 mg^−1) | 200 to 500 | + (+: 100-220 μl min^−1 mg^−1) |  |  |  | 
CCn1nc(-c2ccncc2)c2scc(-c3ccncc3)c2c1=O [Example 136, 5-ethyl-3,7-di(pyridin-4-yl)thieno[2,3-d]pyridazin-4(5H)-one] | ++ (++: <100 μl min^−1 mg^−1) | < 100 | ++ (++: <100 μl min^−1 mg^−1) |  |  |  | 
CCCn1nc(-c2ccncc2)c2scc(-c3ccncc3)c2c1=O [Example 139, 5-propyl-3,7-di(pyridin-4-yl)thieno[2,3-d]pyridazin-4(5H)-one] | + (+: 100-220 μl min^−1 mg^−1) | 100 to 200 | ++ (++: <100 μl min^−1 mg^−1) |  |  |  | 
CCn1nc(-c2ccncc2)c2scc(-c3cncnc3)c2c1=O [Example 145, 5-ethyl-7-(pyridin-4-yl)-3-(pyrimidin-5-yl)thieno[2,3-d]pyridazin-4(5H)-one] | ++ (++: <100 μl min^−1 mg^−1) | < 100 | ++ (++: <100 μl min^−1 mg^−1) |  |  |  | 
O=c1c2c(-c3cncnc3)csc2c(-c2ccncc2)nn1CC1CC1 [Example 146, 5-(cyclopropylmethyl)-7-(pyridin-4-yl)-3-(pyrimidin-5-yl)thieno[2,3-d]pyridazin-4(5H)-one] | ++ (++: <100 μl min^−1 mg^−1) | < 100 | ++ (++: <100 μl min^−1 mg^−1) |  |  |  | 
Cn1nc(OCc2cccnc2)c2scc(-c3ccncc3)c2c1=O [Example 147, 5-methyl-3-(pyridin-4-yl)-7-(pyridin-3-ylmethoxy)thieno[2,3-d]pyridazin-4(5H)-one] | + (+: 100-220 μl min^−1 mg^−1) | < 100 | + (+: 100-220 μl min^−1 mg^−1) |  |  |  | 
COc1ccc(Cc2nccc3cc(OC)c(OC)cc23)cc1OC [Papaverine, papaverine] |  |  |  | reduced | insignificant | did not cause catalepsy | potentiated
